# Data as given in ChEMBL document CHEMBL1770111, “A series of structurally simple chloroquine chemosensitizing dibemethin derivatives that inhibit chloroquine transport by PfCRT” (Eur J Med Chem, 2011).
# Calls of active or inactive are those of the source. The calls are words filed in the database; no cut-off is given here.
# Assays:
# Plasmodium falciparum [1] = test: Resistance modification index, ratio of IC50 for chloroquine in presence of compound to IC50 for chloroquine alone for chloroquine-resistant Plasmodium falciparum W2; type: functional
# Plasmodium falciparum [2] = test: Antiplasmodial activity against chloroquine-resistant Plasmodium falciparum W2 by parasite lactate dehydrogenase assay; type: functional, organism-based
# Plasmodium falciparum [3] = test: Inhibition of chloroquine-resistant Plasmodium falciparum […] CRT expressed in Xenopus laevis oocytes assessed as [3H]-chloroquine uptake after 1 to 2 hrs; settings: Oocyte
# Plasmodium falciparum [4] = test: Resistance modification index, ratio of compound IC10 to chloroquine IC50 in presence of IC10 compound for chloroquine-resistant Plasmodium falciparum W2; type: functional
# Plasmodium falciparum [5] = test: Antiplasmodial activity against chloroquine-resistant Plasmodium falciparum W2 at 15.2 uM by parasite lactate dehydrogenase assay; type: functional, organism-based
smiles,measurement,setting,value
CN(Cc1ccccc1)Cc1cccc(CN)c1,Ratio IC50,Plasmodium falciparum [1],0.08
same,IC50,Plasmodium falciparum [2],2.8 µM
CN(Cc1ccc(CNC=O)cc1)Cc1ccc(N(C)C)cc1,Ratio IC50,Plasmodium falciparum [1],1.36
same,IC50,Plasmodium falciparum [3]; read-out: IC50,657 µM
same,IC10,Plasmodium falciparum [2],15.2 µM
same,IC50,Plasmodium falciparum [2],33 µM
same,Ratio IC50,Plasmodium falciparum [4],0.46
COc1ccc(CN(C)Cc2ccc(CN)cc2)cc1,Ratio IC50,Plasmodium falciparum [1],0.33
same,IC50,Plasmodium falciparum [2],91 µM
CN(Cc1ccc(CN)cc1)Cc1ccc(N(C)C)cc1,Ratio IC50,Plasmodium falciparum [1],0.21
same,IC50,Plasmodium falciparum [2],11.7 µM
COc1ccc(CN(C)Cc2ccc(CNC=O)cc2)cc1,Ratio IC50,Plasmodium falciparum [1],1.22
same,IC10,Plasmodium falciparum [2],16 µM
same,IC50,Plasmodium falciparum [2],37 µM
same,Ratio IC50,Plasmodium falciparum [4],0.46
CN(Cc1ccc(Cl)cc1)Cc1ccccc1CNC=O,Ratio IC50,Plasmodium falciparum [1],1.07
same,IC10,Plasmodium falciparum [2],12 µM
same,IC50,Plasmodium falciparum [2],119 µM
same,Ratio IC50,Plasmodium falciparum [4],0.34
COc1ccc(CN(C)Cc2ccccc2CNC=O)cc1,Ratio IC50,Plasmodium falciparum [1],1.22
same,IC10,Plasmodium falciparum [2],12 µM
same,IC50,Plasmodium falciparum [2],29 µM
same,Ratio IC50,Plasmodium falciparum [4],0.32
COc1ccc(CN(C)Cc2ccccc2CN)cc1,Ratio IC50,Plasmodium falciparum [1],0.35
same,IC50,Plasmodium falciparum [2],> 233 µM
CN(Cc1ccc(N(C)C)cc1)Cc1cccc(CNC=O)c1,Ratio IC50,Plasmodium falciparum [1],0.62
same,IC50,Plasmodium falciparum [2],17 µM
same,inhibition,Plasmodium falciparum [5],inactive
same,Ratio IC50,Plasmodium falciparum [4],1
CN(Cc1ccc(N(C)C)cc1)Cc1ccccc1CN,Ratio IC50,Plasmodium falciparum [1],0.36
same,IC50,Plasmodium falciparum [2],37 µM
COc1ccc(CN(C)Cc2cccc(CN)c2)cc1,Ratio IC50,Plasmodium falciparum [1],0.25
same,IC50,Plasmodium falciparum [2],6.8 µM
CN(Cc1ccccc1)Cc1ccccc1CN,Ratio IC50,Plasmodium falciparum [1],0.03
same,IC50,Plasmodium falciparum [3]; read-out: IC50,24 µM
same,IC50,Plasmodium falciparum [2],4.1 µM
CN(Cc1ccccc1)Cc1ccc(CNC=O)cc1,Ratio IC50,Plasmodium falciparum [1],1.13
same,IC10,Plasmodium falciparum [2],18 µM
same,IC50,Plasmodium falciparum [2],56 µM
same,Ratio IC50,Plasmodium falciparum [4],0.43
CN(Cc1ccccc1)Cc1cccc(CNC=O)c1,Ratio IC50,Plasmodium falciparum [1],0.84
same,IC10,Plasmodium falciparum [2],9.7 µM
same,IC50,Plasmodium falciparum [2],21 µM
same,Ratio IC50,Plasmodium falciparum [4],0.29
COc1ccc(CCN(C)CCCC(C#N)(c2ccc(OC)c(OC)c2)C(C)C)cc1OC (configuration not stated) [VERAPAMIL],Ratio IC50,Plasmodium falciparum [1],0.26
same,IC50,Plasmodium falciparum [3],30 µM
CN(Cc1ccccc1)Cc1ccc(CN)cc1,Ratio IC50,Plasmodium falciparum [1],0.24
same,IC50,Plasmodium falciparum [2],29 µM
CN(Cc1ccc(Cl)cc1)Cc1ccc(CN)cc1,Ratio IC50,Plasmodium falciparum [1],0.25
same,IC50,Plasmodium falciparum [3]; read-out: IC50,140 µM
same,IC50,Plasmodium falciparum [2],63 µM
CN(Cc1ccc(Cl)cc1)Cc1ccc(CNC=O)cc1,Ratio IC50,Plasmodium falciparum [1],0.9
same,IC10,Plasmodium falciparum [2],5.4 µM
same,IC50,Plasmodium falciparum [2],29 µM
same,Ratio IC50,Plasmodium falciparum [4],0.46
COc1ccc(CN(C)Cc2cccc(CNC=O)c2)cc1,Ratio IC50,Plasmodium falciparum [1],1.19
same,IC10,Plasmodium falciparum [2],9 µM
same,IC50,Plasmodium falciparum [2],48 µM
same,Ratio IC50,Plasmodium falciparum [4],0.51
CN(Cc1ccc(N(C)C)cc1)Cc1cccc(CN)c1,Ratio IC50,Plasmodium falciparum [1],0.24
same,IC50,Plasmodium falciparum [2],30 µM
CN(Cc1ccccc1)Cc1ccccc1CNC=O,Ratio IC50,Plasmodium falciparum [1],0.75
same,IC10,Plasmodium falciparum [2],1.7 µM
same,IC50,Plasmodium falciparum [2],11 µM
same,Ratio IC50,Plasmodium falciparum [4],0.44
CN(Cc1ccc(Cl)cc1)Cc1ccccc1CN,Ratio IC50,Plasmodium falciparum [1],0.096
same,IC50,Plasmodium falciparum [2],5.7 µM
CN(Cc1ccc(Cl)cc1)Cc1cccc(CNC=O)c1,IC10,Plasmodium falciparum [2],4 µM
same,IC50,Plasmodium falciparum [2],16 µM
same,Ratio IC50,Plasmodium falciparum [4],0.51
CN(Cc1ccc(N(C)C)cc1)Cc1ccccc1CNC=O,Ratio IC50,Plasmodium falciparum [1],1
same,IC10,Plasmodium falciparum [2],15 µM
same,IC50,Plasmodium falciparum [2],42 µM
same,Ratio IC50,Plasmodium falciparum [4],0.49
CN(Cc1ccc(Cl)cc1)Cc1cccc(CN)c1,Ratio IC50,Plasmodium falciparum [1],0.31
same,IC50,Plasmodium falciparum [3]; read-out: IC50,101 µM
same,IC50,Plasmodium falciparum [2],30 µM
